# ChEMBL document CHEMBL4033668, “Inhibitors of cytochrome P450 (CYP) 1B1” (Eur J Med Chem, 2017)
# What was measured:
# [1] = molecular target: T1, Cytochrome P450 1A2 (Homo sapiens, UniProt P05177); experiment: Competitive inhibition of […] CYP1A2 expressed in supersomes coexpressing NADPH-CYP reductase using 7-Ethoxyresorufin as substrate measured every 5 mins for 30 mins in presence of NADPH by fluorescence assay; type: ADME
# T1 sequence (P05177 whole entry): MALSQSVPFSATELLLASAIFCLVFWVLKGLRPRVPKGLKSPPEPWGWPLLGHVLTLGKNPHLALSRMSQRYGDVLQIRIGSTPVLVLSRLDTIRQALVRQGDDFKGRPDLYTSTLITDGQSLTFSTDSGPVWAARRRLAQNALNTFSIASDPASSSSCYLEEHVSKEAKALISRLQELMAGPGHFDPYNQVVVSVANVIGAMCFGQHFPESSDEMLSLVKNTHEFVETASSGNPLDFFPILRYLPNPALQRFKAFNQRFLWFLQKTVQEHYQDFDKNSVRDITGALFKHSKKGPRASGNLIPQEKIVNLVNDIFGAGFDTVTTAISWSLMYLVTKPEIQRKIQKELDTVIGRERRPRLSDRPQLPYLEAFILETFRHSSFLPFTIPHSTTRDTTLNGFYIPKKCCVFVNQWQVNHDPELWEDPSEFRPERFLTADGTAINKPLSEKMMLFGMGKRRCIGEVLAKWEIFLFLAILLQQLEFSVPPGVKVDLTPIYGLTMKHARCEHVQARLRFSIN
# [2] = molecular target: T2, Cytochrome P450 1B1 (Homo sapiens, UniProt Q16678); experiment: Competitive inhibition of […] CYP1B1 expressed in supersomes coexpressing NADPH-CYP reductase using 7-Ethoxyresorufin as substrate measured every 5 mins for 30 mins in presence of NADPH by fluorescence assay
# T2 sequence (Q16678 whole entry): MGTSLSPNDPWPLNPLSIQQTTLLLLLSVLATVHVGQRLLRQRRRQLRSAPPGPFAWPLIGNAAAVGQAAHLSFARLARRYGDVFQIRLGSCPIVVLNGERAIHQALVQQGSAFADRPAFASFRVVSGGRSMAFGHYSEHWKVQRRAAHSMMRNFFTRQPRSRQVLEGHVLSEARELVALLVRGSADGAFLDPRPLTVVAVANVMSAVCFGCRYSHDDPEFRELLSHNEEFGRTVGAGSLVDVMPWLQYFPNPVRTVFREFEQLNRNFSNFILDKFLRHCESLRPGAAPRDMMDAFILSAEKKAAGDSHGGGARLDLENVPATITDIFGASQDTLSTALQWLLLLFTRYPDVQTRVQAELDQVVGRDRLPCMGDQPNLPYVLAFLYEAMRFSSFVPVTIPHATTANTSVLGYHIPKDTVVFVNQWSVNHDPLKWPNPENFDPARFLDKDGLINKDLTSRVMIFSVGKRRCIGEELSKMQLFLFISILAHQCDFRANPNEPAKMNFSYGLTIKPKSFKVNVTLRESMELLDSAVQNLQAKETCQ
# [3] = molecular target: T3, Cytochrome P450 1A1 (Homo sapiens, UniProt P04798); experiment: Competitive inhibition of […] CYP1A1 expressed in supersomes coexpressing NADPH-CYP reductase using 7-Ethoxyresorufin as substrate measured every 5 mins for 30 mins in presence of NADPH by fluorescence assay; type: ADME; conditions: read-out: Ki
# T3 sequence (P04798 whole entry): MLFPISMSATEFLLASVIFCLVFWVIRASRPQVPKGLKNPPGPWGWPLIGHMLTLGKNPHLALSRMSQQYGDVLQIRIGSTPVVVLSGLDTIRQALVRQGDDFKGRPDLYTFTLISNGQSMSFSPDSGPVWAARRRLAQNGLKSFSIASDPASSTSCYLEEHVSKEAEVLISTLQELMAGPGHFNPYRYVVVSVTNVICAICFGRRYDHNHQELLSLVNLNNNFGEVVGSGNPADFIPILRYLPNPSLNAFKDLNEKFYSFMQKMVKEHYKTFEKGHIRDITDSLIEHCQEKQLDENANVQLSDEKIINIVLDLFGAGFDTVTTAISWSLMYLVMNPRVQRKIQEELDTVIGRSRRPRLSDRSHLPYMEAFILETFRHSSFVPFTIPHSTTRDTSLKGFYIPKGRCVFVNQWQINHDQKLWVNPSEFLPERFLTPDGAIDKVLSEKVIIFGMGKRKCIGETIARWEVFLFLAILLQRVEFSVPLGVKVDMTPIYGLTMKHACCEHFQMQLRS
# [4] = molecular target: T2, Cytochrome P450 1B1; experiment: Inhibition of recombinant human CYP1B1 expressed in supersomes using ethoxyresorufin as substrate after 20 mins in presence of NADPH by fluorescence assay
# [5] = molecular target: T1, Cytochrome P450 1A2; experiment: Inhibition of recombinant human CYP1A2 expressed in Escherichia coli DH5alpha using ethoxyresorufin as substrate preincubated for 3 mins followed by NADPH addition measured after 10 mins by spectrofluorometric assay; type: ADME
# [6] = molecular target: T2, Cytochrome P450 1B1; experiment: Inhibition of CYP1B1 in TCDD-exposed human MCF-7 cells using ethoxyresorufin as substrate after 20 mins in presence of NADPH by Lineweaver-Burk linear regression plot analysis
# [7] = molecular target: T2, Cytochrome P450 1B1; experiment: Inhibition of CYP1B1 in TCDD-exposed human MCF-7 cells using ethoxyresorufin as substrate after 20 mins in presence of NADPH by spectrofluorimetric analysis
# [8] = Selectivity ratio of IC50 for CYP1A1 in TCDD-exposed human MCF-7 cells to IC50 for CYP1B1 in TCDD-exposed human MCF-7 cells
# [9] = molecular target: T3, Cytochrome P450 1A1; experiment: Inhibition of CYP1A1 in TCDD-exposed human MCF-7 cells using ethoxyresorufin as substrate after 20 mins in presence of NADPH by spectrofluorimetric analysis; type: ADME
# [10] = Competitive inhibition of […] CYP1 expressed in supersomes coexpressing NADPH-CYP reductase using 7-Ethoxyresorufin as substrate measured every 5 mins for 30 mins in presence of NADPH by fluorescence assay; type: ADME
# [11] = molecular target: T3, Cytochrome P450 1A1; experiment: Mixed type inhibition of human hepatic microsomes CYP1A1 expressed in supersomes coexpressing NADPH-cytochrome P450 reductase using 7-Ethoxyresorufin as substrate measured every 30 secs for 3 mins in presence of NADPH by spectrofluorometric analysis; type: ADME
# [12] = molecular target: T2, Cytochrome P450 1B1; experiment: Mixed type inhibition of human hepatic microsomes CYP1B1 expressed in supersomes coexpressing NADPH-cytochrome P450 reductase using 7-Ethoxyresorufin as substrate measured every 30 secs for 3 mins in presence of NADPH by spectrofluorometric analysis
compound,measurement,setting,value
CCCCCc1cc(O)c2c(c1)OC(C)(C)c1ccc(C)cc1-2 [CANNABINOL],Ki,[1],0.079 µM
same,Ki,[2],0.148 µM
same,Ki,[3],0.541 µM
C=C(C)C1CC=C(CO)CC1 (configuration not stated),Ki,[4],2 µM
COc1cc(/C=C/c2ccc(OC)cc2OC)cc(OC)c1,IC50,[5],3 µM
Br.Cc1ccc(C(=O)Cn2c3c(sc2=N)CCCC3)cc1,Ki,[6],0.00438 µM
same,IC50,[7],0.0206 µM
same,Ratio IC50,[8],73
same,IC50,[9],1.5 µM
CCCCCc1cc(O)c2c(c1)OC(C)(C)[C@@H]1CCC(C)=C[C@@H]21 [DRONABINOL],Ki,[10],2.47 to 7.54 µM
COc1ccc2[nH]cc(CCNC(C)=O)c2c1 [MELATONIN],Ki,[11],59 µM
same,Ki,[12],14 µM
